These results are taken from article PMC11678116 (Molecules, 2024).

SMILES strings stand for the structures. Where “and” joins values, the source holds several entries; their conditions need not be identical. Equal entries are not always repeated. Where two headings read alike, the source gives them in different places. Marks after values point to notes of the source that are not given here.

The test system of assay [1] is P. falciparum 3D7 (Pf3D7). To be noted: CQ-sensitive strain; cited from earlier work.
For assay [2], the system named is P. falciparum Dd2 (PfDd2). To be noted: multi-drug resistant strain; cited from earlier work.
Assay [3] deals with P. falciparum Dd2 (PfDd2). In words: microbe, parasite or virus in culture. Format: cell-based. To be noted: Plasmodium falciparum, DD2, read-out: IC50 PfDd2. How it is done: The resistance index (RI), which represents a ratio between IC50 obtained against PfDd2 and Pf3D7, was also calculated (Table 3).
Briefly, 96-well plates were pre-coated with the tested compounds in a three-fold dilution before ring-stage parasites were added to the complete culture medium at a haematocrit of 1.5% and a parasitaemia of 0.05%. After three days of incubation at 37 °C, 5% CO2, and 5% oxygen, plates were frozen until analysed by HRP2-ELISA. All compounds were evaluated in duplicate in at least two independent experiments. The IC50 was determined by non-linear regression analysis of log concentration-response curves using the drc-package v0.9.0 of R v2.6.1 [42].

In assay [4] the test system is P. falciparum 3D7 (Pf3D7). In words: In vitro drug sensitivity assay (HRP2-ELISA) against erythrocytic stage, CQ-sensitive strain. Format: cell-based. To be noted: Plasmodium falciparum, mean ± SD (n ≥ 2). How it is done: Briefly, 96-well plates were pre-coated with the tested compounds in a three-fold dilution before ring-stage parasites were added to the complete culture medium at a haematocrit of 1.5% and a parasitaemia of 0.05%. […] All compounds were evaluated in duplicate in at least two independent experiments. The IC50 was determined by non-linear regression analysis of log concentration-response curves using the drc-package v0.9.0 of R v2.6.1 [42].
In general terms: ELISA stands for enzyme-linked immunosorbent assay.

Assay [5] concerns the target T1, human serum albumin (HSA) (Homo sapiens, UniProt P02768). In words: biochemical.
Description: (§3) The electronic absorption (UV/vis) spectra were recorded on a Varian Cary 100 Bio spectrophotometer (Varian, Inc., Palo Alto, CA, USA). Fluorescence measurements were performed on a Varian Cary Eclipse fluorimeter (Varian, Inc., CA, USA), taking care that the absorbance of a sample at the excitation wavelength was > 0.05 to avoid any impact of the inner filter effect.
(§4) Human serum albumin was purchased from Sigma-Aldrich (Sigma-Aldrich, St. Louis, MO, USA) supplier, and dissolved in milli Q (MQ) water.
(§5) Fluorimetric titration experiments were performed by adding aliquots of the polynucleotide stock solution into the solution of the studied dye. […] In both sets of experiments (fluorimetric and CD titrations), a buffer background was subtracted from each spectrum. Every reported spectrophotometric titration was the average of at least two measurements.
The target of a further assay is poly(dAdT)2. Format: binding. The source says: (§1) The titration data are processed by a non-linear fitting procedure to the Scatchard equation [44, 45, 46], yielding binding constants (Supplemental Information, Figures S5–S12, Table 6).
(§2) Polynucleotides were purchased as noted: calf thymus (ct) DNA, poly dAdT–poly dAdT, poly dGdC–poly dGdC, and poly A–poly U (Sigma Aldrich, St. Louis, MO, USA), and dissolved in sodium cacodylate buffer (I = 0.05 M, pH = 7.0).

Another assay deals with calf thymus (ct)-DNA. Format: binding. To be noted: for log Ks ctDNA: pH 7; for ΔInt ctDNA: ΔInt = Int(100% complex)/Int0.
Description: as §1, §2

Assay [6] concerns the target T1, human serum albumin (HSA). In words: Fluorimetric titration with HSA.
Description: as §3, §4, §5
Assay [7] deals with poly A–poly U (pApU, ds-RNA). In words: Fluorimetric titration with poly A–poly U. It counts as binding. How it is done: The strong emission and favourable Stokes shift of emission maxima allowed the performance of fluorimetric titrations with ds-DNA/RNA at very low (5 µM) concentrations of investigated compounds.
as §1, §2

The next assay relates to HepG2 cells. In words: In vitro cytotoxicity, neutral red assay. To be noted: Homo sapiens, HepG2, 24 h, one day of incubation, mean ± SD (n ≥ 2). It counts as cell-based. How it is done: The cytotoxicity of the second-generation harmiquins 33–45 was assessed against HepG2 cells to determine the selectivity of the tested compounds towards P. falciparum in comparison to mammalian cells (Table 4).
Cytotoxicity against a human cell line (HepG2) was evaluated using the neutral red assay with minor modifications. In brief, human cells were seeded to a 96-well plate in a complete culture medium; on the following day, a serial dilution of the respective compound was added. After one day of incubation, cytotoxicity was evaluated by the addition of neutral red, subsequent lysis of cells, and measurement of absorbance (540 nm) in a plate reader (CLARIOstar, BMG Labtech). The IC50 was determined similarly to the in vitro drug assay against P. falciparum. To assess the safety of a compound, SI was calculated as the fractional ratio between the IC50s for HepG2 and P. falciparum 3D7 strain.

T1 sequence (P02768 25-609): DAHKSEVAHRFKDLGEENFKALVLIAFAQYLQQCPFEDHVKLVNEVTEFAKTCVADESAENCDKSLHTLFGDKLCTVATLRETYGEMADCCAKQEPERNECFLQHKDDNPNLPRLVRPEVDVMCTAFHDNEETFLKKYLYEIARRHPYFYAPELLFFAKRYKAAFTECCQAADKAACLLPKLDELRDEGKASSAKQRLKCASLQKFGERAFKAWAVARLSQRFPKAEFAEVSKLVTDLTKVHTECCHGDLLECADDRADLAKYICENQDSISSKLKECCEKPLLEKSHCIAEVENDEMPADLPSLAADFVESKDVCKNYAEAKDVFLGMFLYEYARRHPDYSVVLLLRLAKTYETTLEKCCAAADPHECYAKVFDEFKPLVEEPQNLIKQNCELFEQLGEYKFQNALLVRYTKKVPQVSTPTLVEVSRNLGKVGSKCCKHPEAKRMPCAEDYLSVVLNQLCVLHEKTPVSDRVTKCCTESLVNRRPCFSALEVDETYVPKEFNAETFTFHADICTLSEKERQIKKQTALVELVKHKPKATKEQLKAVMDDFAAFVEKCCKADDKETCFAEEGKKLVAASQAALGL

Take `COc1ccc2c3ccnc(C)c3n(CCNC(=O)CNc3ccnc4cc(Cl)ccc34)c2c1` [A]: the results for the IC50 in assay [1] and in [2] were 2 ± 0.3 nM and 16.2 ± 2.83 nM, respectively.

Take `COc1ccc2c3ccnc(C)c3n(Cc3cn(CCNc4ccnc5cc(Cl)ccc45)nn3)c2c1` [B]: the results for the IC50 in assay [1] and in assay [2] were 11.6 ± 3.8 nM and 204 ± 9.89 nM, respectively.

On to `CCOc1ccc2c3ccnc(C)c3n(CCNC(=O)CNc3ccnc4cc(Cl)ccc34)c2c1` [Compound 33, 2-((7-Chloroquinolin-4-yl)amino)-N-(2-(7-ethoxy-1-methyl-9H-pyrido[3,4-b]indol-9-yl)ethyl)acetamide], for which the figures for the IC50 in assay [3] and in [4] were 6.5 ± 2.5 nM and 4.7 ± 1.3 nM, respectively.

Turning to `CCCOc1ccc2c3ccnc(C)c3n(CCNC(=O)CNc3ccnc4cc(Cl)ccc34)c2c1` [Compound 34, 2-((7-Chloroquinolin-4-yl)amino)-N-(2-(1-methyl-7-propoxy-9H-pyrido[3,4-b]indol-9-yl)ethyl)acetamide], the Kd (commonly the concentration at which binding is half-saturated) in assay [5] is 794 nM. In addition, the “log Ks toward AT-DNA and AU-RNA” value on poly(dAdT)2 is 4–5. Also, on poly(dAdT)2 (pH 7), the “log Ks p(dA-dT)2” value stood at 5.2. The “ΔInt p(dA-dT)2” value in the assay with poly(dAdT)2 (ΔInt = Int(100% complex)/Int0) was “(2.28)”. In the assay on calf thymus (ct)-DNA, the “log Ks toward GC-containing DNAs” value is 6–7, the “log Ks ctDNA” value came out at 7.3 and the “ΔInt ctDNA” value is given as “(0.57)”. For the same compound, the IC50 (in general, the concentration needed to halve the response being measured) in [3] turned out to be 17.7 ± 8.7 nM. For the same compound, the “ΔInt HSA” value in assay [6] is “(62.8)”. Moreover, in [7] (estimation only, almost linear emission change, pH 7.0, sodium cacodylate buffer, I = 0.05 M), the “log Ks pApU” value was >4 ^c. Moreover, in assay [4], the midpoint of inhibition, the IC50, lay at 11 ± 1.5 nM. Further, in the assay with HepG2 cells, it took 18200 ± 1800 nM to reach half-maximal inhibition (IC50).

With `Cc1nccc2c3ccc(OC(C)C)cc3n(CCNC(=O)CNc3ccnc4cc(Cl)ccc34)c12` [Compound 35, 2-((7-Chloroquinolin-4-yl)amino)-N-(2-(7-isopropoxy-1-methyl-9H-pyrido[3,4-b]indol-9-yl)ethyl)acetamide], the IC50 in assay [3] turned out to be 26.5 ± 4.5 nM; in assay [4], 28.1 ± 0.5 nM; in the assay with HepG2 cells, 127000 ± 31500 nM.

Consider `COc1ccc2c(c1)c1ccnc(C)c1n2CCNC(=O)CNc1ccnc2cc(Cl)ccc12` [Compound 36, 2-((7-Chloroquinolin-4-yl)amino)-N-(2-(6-methoxy-1-methyl-9H-pyrido[3,4-b]indol-9-yl)ethyl)acetamide], for which the IC50 in [3] came to 36.7 ± 4 nM; in assay [4] it was 16.6 ± 2.1 nM; with HepG2 cells, 24300 ± 3400 nM.

`CCCOc1ccc2c(c1)c1ccnc(C)c1n2CCNC(=O)CNc1ccnc2cc(Cl)ccc12` [Compound 37, 2-((7-Chloroquinolin-4-yl)amino)-N-(2-(1-methyl-6-propoxy-9H-pyrido[3,4-b]indol-9-yl)ethyl)acetamide]: the results for the 50% inhibitory concentration (IC50) (in assay [3]; in [4]; in the assay with HepG2 cells) were 10.5 ± 0.4 nM, 4.6 ± 0.6 nM and 35800 ± 4300 nM, respectively.

`CCOc1ccc2c3ccnc(C)c3n(Cc3cn(CCNc4ccnc5cc(Cl)ccc45)nn3)c2c1` [Compound 38, 7-Chloro-N-(2-(4-((7-ethoxy-1-methyl-9H-pyrido[3,4-b]indol-9-yl)methyl)-1H-1,2,3-triazol-1-yl)ethyl)quinolin-4-amine]: the values for the 50% inhibitory concentration (IC50) (in [3]; in [4]; in the assay with HepG2 cells) were 82.2 ± 2.2 nM, 18.7 ± 4.7 nM and 29600 ± 6000 nM, respectively.

With `CCCOc1ccc2c3ccnc(C)c3n(Cc3cn(CCNc4ccnc5cc(Cl)ccc45)nn3)c2c1` [Compound 39, 7-Chloro-N-(2-(4-((1-methyl-7-propoxy-9H-pyrido[3,4-b]indol-9-yl)methyl)-1H-1,2,3-triazol-1-yl)ethyl)quinolin-4-amine], the Kd in assay [5] was 6310 nM and 7940 nM. In addition, the “emission response to AT-DNA” value with poly(dAdT)2 is listed as “completely insensitive”. Also, in the assay on calf thymus (ct)-DNA, the “log Ks toward GC-containing DNAs” value is 4–5, the “log Ks ctDNA” value is 5.5 and the “ΔInt ctDNA” value is on record as “(0.59)”. For the same compound, in assay [3], the IC50 worked out at 20.1 ± 2.2 nM. Besides, the “emission response to AU-RNA” value in assay [7] (compound 5 µM, fluorimetric titration) is “completely insensitive”. Besides, inhibition in assay [4] was half-maximal at 6.8 ± 4 nM (IC50). 14400 ± 1700 nM corresponded to half-maximal inhibition in the assay on HepG2 cells (IC50).

Turning to `Cc1nccc2c3ccc(OC(C)C)cc3n(Cc3cn(CCNc4ccnc5cc(Cl)ccc45)nn3)c12` [Compound 40, 7-Chloro-N-(2-(4-((7-isopropoxy-1-methyl-9H-pyrido[3,4-b]indol-9-yl)methyl)-1H-1,2,3-triazol-1-yl)ethyl)quinolin-4-amine], the results for the IC50 (in [3]; in [4]; with HepG2 cells) were 33.3 ± 1.6 nM, 25 ± 3.3 nM and 26900 ± 900 nM, respectively.

Regarding `COc1ccc2c(c1)c1ccnc(C)c1n2Cc1cn(CCNc2ccnc3cc(Cl)ccc23)nn1` [Compound 41, 7-Chloro-N-(2-(4-((6-methoxy-1-methyl-9H-pyrido[3,4-b]indol-9-yl)methyl)-1H-1,2,3-triazol-1-yl)ethyl)quinolin-4-amine], the results for the IC50 (in assay [3]; in [4]; with HepG2 cells) were 98.7 ± 36.3 nM, 18.5 ± 6.1 nM and 32100 ± 1100 nM, respectively.

Take `CCCOc1ccc2c(c1)c1ccnc(C)c1n2Cc1cn(CCNc2ccnc3cc(Cl)ccc23)nn1` [Compound 42, 7-Chloro-N-(2-(4-((1-methyl-6-propoxy-9H-pyrido[3,4-b]indol-9-yl)methyl)-1H-1,2,3-triazol-1-yl)ethyl)quinolin-4-amine]: the IC50 in [3] turned out to be 15.5 ± 1.7 nM; in [4], 7.6 ± 0.2 nM; with HepG2 cells, 20300 ± 1600 nM.

Regarding `CCc1nccc2c3ccccc3n(Cc3cn(CCNc4ccnc5cc(Cl)ccc45)nn3)c12` [Compound 43, 7-Chloro-N-(2-(4-((1-ethyl-9H-pyrido[3,4-b]indol-9-yl)methyl)-1H-1,2,3-triazol-1-yl)ethyl)quinolin-4-amine], the IC50 in [3] worked out at 204 ± 73.2 nM; in assay [4], 88.4 ± 0.5 nM; in the assay with HepG2 cells, 68200 ± 6100 nM.

Take `CCCc1nccc2c3ccccc3n(Cc3cn(CCNc4ccnc5cc(Cl)ccc45)nn3)c12` [Compound 44, 7-Chloro-N-(2-(4-((1-propyl-9H-pyrido[3,4-b]indol-9-yl)methyl)-1H-1,2,3-triazol-1-yl)ethyl)quinolin-4-amine]: the IC50 amounted to 214 ± 71.8 nM in assay [3], 96.9 ± 1.5 nM in assay [4] and 68900 ± 4300 nM in the assay on HepG2 cells.

For `CC(C)c1nccc2c3ccccc3n(Cc3cn(CCNc4ccnc5cc(Cl)ccc45)nn3)c12` [Compound 45, 7-Chloro-N-(2-(4-((1-isopropyl-9H-pyrido[3,4-b]indol-9-yl)methyl)-1H-1,2,3-triazol-1-yl)ethyl)quinolin-4-amine], the IC50 in assay [3] came out at 18.8 ± 9.1 nM; in [4], 15.9 ± 11.5 nM; in the assay with HepG2 cells, 128000 ± 2700 nM.
